Here are results for two compounds from patent US20220193240A1, “TRIGGERABLE HYDROGEL COMPOSITIONS AND RELATED METHODS” (Massachusetts Institute of Technology, priority 2016, published 2022).

The conditions of data set [1]: pH 7.4.
Description: Permeability measurement. The measurement of permeability of TTHs was carried out on a Franz diffusion cell using a TTH membrane (thickness, 3 mm). […] At each time point, 0.4 mL was sampled from the acceptor compartment and 0.4 mL fresh PBS was supplemented through the sampling port of the cell.
A short description of data set [2]: In vivo pharmacokinetics of lumefantrine with model fit. Also noted: species or system Yorkshire pig. As for the experimental part: In vivo studies. All animal experiments were performed in accordance with protocols approved by the Committee on Animal Care at MIT. A large animal model, 45-55 kg Yorkshire pigs, was chosen as its gastric anatomy similar to humans and is widely used in evaluating devices in the GI space. Pigs were sedated with Telazol (tiletamine/zolazepam) 5 mg kg−1, xylazine 2 mg kg−1, and atropine 0.05 mg kg−1, and/or isoflurane (1˜3% inhaled), and an endoscopic overtube (US Endoscopy) was placed in the esophagus under endoscopic visual guidance during esophageal intubation. To evaluate the TTH for its ability to be triggered to dissolve into solution with biocompatible agents, the retrievable TTH strips and methyl blue-labeled large TTH sheets were administered via the overtube into the stomach. PBS (0.5 L) containing EDTA (40 mM), GSH (20 mM), and NaHCO3 (60 mM) was administered via the overtube after the gastric placement of the TTH samples. Intra-gastric endoscopy videography was used for image capture of the dissolution of the TTH sheets. The TTH strips were retrieved endoscopically after 1 h in the gastric cavity. Pigs that were not administered EDTA/GSH and therefore the strips and sheets were only exposed to gastric fluid were used as control experiments. To assess TTHs for the ability to achieve gastric retention, radiopaque barium sulfate-labeled capsule-like TTHs were administered via the overtube into the gastric cavity (one TTH device per pig). Radiographs were performed every 48-72 h to monitor the integrity and transit of the devices as well as any radiographic evidence of bowel obstruction or perforation. […] During the evaluation of the TTH systems for gastric residence and drug delivery the animals were monitored twice daily for any signs of abnormal feeding and stooling patterns. Additionally the animals were monitored clinically for any evidence of gastrointestinal obstruction as well as radiographically every 48-72 hours for evidence of obstruction and/or perforation. […]

For the compound `C[S+](C)[O-]` [dimethyl sulfoxide], the “permeability through the TTH” value in data set [1] came out at 0.082 mL h·cm−2.

As for `CCCCN(CCCC)CC(O)c1cc(Cl)cc2c1-c1ccc(Cl)cc1/C2=C/c1ccc(Cl)cc1` (stereo not shown) [free lumefantrine, lumefantrine], the clearance from blood entry in data set [2] (after a single administration) was “rapidly cleared from blood”. Also, the absorption rate constant in data set [2] (first order model fit) was 1.17 day⁻¹. The elimination rate constant in data set [2] (free drug, model fit, estimated) was 1.17 day⁻¹.
